According to ChEMBL document CHEMBL1150384, “Design, synthesis, and evaluation of potential inhibitors of nitric oxide synthase” (Bioorg Med Chem, 2008):

Molecular target: Nitric oxide synthase 1 (Homo sapiens, UniProt P29475)
Sequence (P29475 whole entry): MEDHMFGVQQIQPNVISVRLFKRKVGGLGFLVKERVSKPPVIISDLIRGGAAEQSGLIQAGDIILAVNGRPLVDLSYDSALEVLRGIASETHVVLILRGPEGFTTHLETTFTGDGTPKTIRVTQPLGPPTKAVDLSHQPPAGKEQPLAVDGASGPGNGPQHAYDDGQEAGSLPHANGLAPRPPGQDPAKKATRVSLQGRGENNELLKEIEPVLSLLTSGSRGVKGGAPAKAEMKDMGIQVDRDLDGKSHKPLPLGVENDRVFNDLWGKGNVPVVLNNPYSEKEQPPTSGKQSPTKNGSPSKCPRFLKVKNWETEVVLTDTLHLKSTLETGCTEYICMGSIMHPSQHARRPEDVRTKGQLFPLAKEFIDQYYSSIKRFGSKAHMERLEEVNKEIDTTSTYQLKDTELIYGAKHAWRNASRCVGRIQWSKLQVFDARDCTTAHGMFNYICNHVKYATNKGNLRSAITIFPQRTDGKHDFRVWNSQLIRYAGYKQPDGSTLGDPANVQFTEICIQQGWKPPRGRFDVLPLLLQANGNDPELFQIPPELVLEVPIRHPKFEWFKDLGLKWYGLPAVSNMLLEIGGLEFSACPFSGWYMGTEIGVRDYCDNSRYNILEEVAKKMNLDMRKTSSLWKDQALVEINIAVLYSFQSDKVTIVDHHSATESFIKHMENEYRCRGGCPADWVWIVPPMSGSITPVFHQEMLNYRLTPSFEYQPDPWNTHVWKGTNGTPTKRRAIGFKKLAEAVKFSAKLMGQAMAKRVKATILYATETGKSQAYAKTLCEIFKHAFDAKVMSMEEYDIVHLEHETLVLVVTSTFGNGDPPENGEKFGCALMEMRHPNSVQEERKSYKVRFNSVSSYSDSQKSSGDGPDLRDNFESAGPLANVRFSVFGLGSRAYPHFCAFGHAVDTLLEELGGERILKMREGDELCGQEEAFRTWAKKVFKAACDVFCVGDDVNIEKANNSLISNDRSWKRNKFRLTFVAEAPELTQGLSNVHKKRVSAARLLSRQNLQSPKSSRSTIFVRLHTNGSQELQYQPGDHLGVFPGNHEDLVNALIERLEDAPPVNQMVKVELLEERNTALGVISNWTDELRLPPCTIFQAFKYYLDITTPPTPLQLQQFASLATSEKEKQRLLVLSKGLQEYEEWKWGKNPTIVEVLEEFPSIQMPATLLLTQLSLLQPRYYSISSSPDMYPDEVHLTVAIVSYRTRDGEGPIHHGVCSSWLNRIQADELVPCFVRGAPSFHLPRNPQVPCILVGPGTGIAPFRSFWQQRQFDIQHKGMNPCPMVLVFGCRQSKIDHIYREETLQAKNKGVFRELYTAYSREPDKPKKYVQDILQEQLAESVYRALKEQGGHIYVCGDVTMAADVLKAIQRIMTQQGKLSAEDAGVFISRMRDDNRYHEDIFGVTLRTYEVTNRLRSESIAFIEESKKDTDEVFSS
Description: Inhibition of nNOS assessed as conversion of L-[3H]arginine to L-[3H]citrulline

Compound | Ki [µM]
CC(=N)Nc1cccc(CNO)c1 | 2.1
FC(F)(F)c1ccc(OCCCCn2ccnc2)cc1 | 94
CC(=N)Nc1cccc(N)c1 | 14
Brc1ccc(OCCn2ccnc2)cc1 | 125
CC(C)C/N=C(\N)n1cccn1 | 45
Cc1cnc(N)s1 | 1.1
O=C(Cn1ccnc1)c1ccccc1[N+](=O)[O-] | 375
Cc1csc(N)n1 | 10
Cc1cc(C)n(C(=N)N)n1 | 350
CC(=N)Nc1cccc(CCN)c1 | 1
c1c[nH]cn1 [IMIDAZOLE] | 175
Brc1ccc(OCCCCCCn2ccnc2)cc1 | 57
CC(=N)Nc1cccc(CNCc2cccc(C(C)=N)c2)c1 | 0.042
Brc1cccc(OCCCCn2ccnc2)c1 | 60
N=C(NC1CC1)n1cccn1 | 50
CC(=N)Nc1cccc(NC(C)=N)c1 | 1.5
CC(=N)Nc1cccc(CN(C)C)c1 | 0.17
Brc1ccc(OCCCCn2ccnc2)cc1 | 32
N=C(NN)Nc1ccccc1 | 4
Cc1nccn1CC(=O)c1ccc([N+](=O)[O-])cc1 | 74
CC(=N)Nc1cccc(NN)c1 | 1.1
c1ccc(-c2ccc(CCn3ccnc3)cc2)cc1 | 175
N=C(N)SCc1ccccc1 [BENZYL CARBAMIMIDOTHIOATE] | 14
NC(=O)[C@@H]1C[C@@H](NC(=O)[C@@H](N)CCC/N=C(\N)N[N+](=O)[O-])CN1 | 0.1
Brc1ccccc1OCCCCn1ccnc1 | 180
Brc1ccc(OCCCn2ccnc2)cc1 | 125

Compound | Ki [µM]
CC(C)(C)SC(=N)N | 0.62
CCCC/N=C(\N)n1cccn1 | 14
Cc1cnn(C(=N)N)c1 | 12
N=C(NCC1CC1)n1cccn1 | 10
Cc1nc(N)sc1C | 0.38
CNC(=N)NN | 14
N=C(NCCC[C@H](N)C(=O)N[C@@H]1CN[C@@H](C(N)=O)C1)N[N+](=O)[O-] | 1.1
OC(Cn1ccnc1)c1ccc(-c2ccccc2)cc1 (centres undefined) | 125
NC1=NCCS1 | 0.41
N=C(N)NN [PIMAGEDINE] | 3.3
CCC/N=C(\N)n1cccn1 | 3
FC(F)(F)c1ccc(OCCn2ccnc2)cc1 | 45
FC(F)(F)c1ccc(OCCCn2ccnc2)cc1 | 75
CNCc1cccc(NC(C)=N)c1 | 0.056
CC(=N)Nc1cccc(S(N)(=O)=O)c1 | 29
O=C(Cn1ccnc1)c1ccc([N+](=O)[O-])cc1 | 105
c1ccc(-n2ccnc2)cc1 | 430
Nc1nc(CCc2ccccc2)cs1 | 0.89
FC(F)(F)c1ccc(OCCCCCCn2ccnc2)cc1 | 35
N=C(NN)NO | 0.68
CC(=N)Nc1cccc(CN2CCOCC2)c1 | 2.8
N=C(N)n1cccn1 [PRAXADINE] | 0.4
N=C(Nc1cccc(CN)c1)n1cccn1 | 2
Nc1nccs1 [AMINOTHIAZOLE] | 12
CCNC(=N)NN | 1
Cc1ccn(C(=N)N)n1 | 8

The remaining lines, values ahead:

Ki [µM] | Compound
0.029 | CCSC(=N)N [ETHYLISOTHIOUREA]
65 | N[C@@H](CCCCc1cnc[nH]1)C(=O)O
150 | N[C@@H](CCCCCCc1cnc[nH]1)C(=O)O
80 | N[C@@H](CCCc1cncn1-c1ccccc1)C(=O)O
2 | CC(C)=CCSC(=N)N
0.8 | N=C(N)SCCc1ccccc1
5.3 | CCCC(=N)NCCC[C@H](N)C(=O)O
0.25 | N=C(N)SCCc1cccc(CCSC(=N)N)c1
100 | N[C@@H](CCCCc1cncn1-c1ccccc1)C(=O)O
60 | CCCCC/N=C(\N)n1cccn1
3 | CCC(=N)NCCC[C@H](N)C(=O)O
14 | N=C(N)SCCCc1ccccc1
0.37 | CC(=N)Nc1cccc(CN=C(C)N)c1
0.016 | N=C(N)SCCc1ccc(CCSC(=N)N)cc1
0.1 | C=CCC(=N)NCCC[C@H](N)C(=O)O
0.037 | CC(C)SC(=N)N
4.8 | N=C(N)SCCCc1cccc(CCCSC(=N)N)c1
0.63 | CCCSC(=N)N
6 | NCCCC/N=C(\N)n1cccn1
170 | N[C@@H](CCc1cnc[nH]1)C(=O)O
0.36 | CC(=N)Nc1cccc(CSC(=N)N)c1
1.8 | N=C(N)SCCN
70 | N[C@@H](CCCCCc1cncn1-c1ccccc1)C(=O)O
2 | N[C@@H](CCCCCc1cnc[nH]1)C(=O)O
0.57 | CC(=N)Nc1cccc(C(=N)N)c1
2 | N[C@@H](CCCc1cnc[nH]1)C(=O)O
0.1 | N=C(N)SCc1ccc(CSC(=N)N)cc1
